Assay results as given in patent US9145405B2, “Oxadiazole compound and preparation method thereof, pharmaceutical composition and use thereof” (SHANGHAI JIAO TONG UNIVERSITY, priority 2011, dated 2015).
In brackets after ≈: the same amount, converted by molar mass. Where two headings read alike, the source gives them in different places.

What was measured:
Cox_B3 virus = test: Anti-Cox_B3 test: inhibition of cytopathic effect (CPE) in infected Vero cells, Reed-Muench; assay type: cell-based; conditions: Cox_B3 virus in Vero cells, CPE, Reed-Muench method; for IC50: read-out: IC50 (half-inhibitory concentration for viruses)
Description: The present examples verifies experimental results of anti-Cox_B3 of the compounds 1-137of the present invention, Pleconaril, 3-[3,5-dimethyl-4-[5-(3-methy-1,2-oxazolyl)propoxy]phenyl]-5-(trifluonomethyl) -1,2,4-oxadiazole is used as positive control.

Vero cells = test: Toxicity (half toxic concentration) in the anti-Cox_B3 test on Vero cells; assay type: cell-based

Molecule	IC50 (half-inhibitory concentration for viruses) (Cox_B3 virus) [mg/L]	TC50 (half of the toxic concentration) (Vero cells) [mg/L]	IC50 (Cox_B3 virus) [mg/L]	TC50 (half of the toxic concentration) (Vero cells; Vero cells, Cox_B3) [mg/L]
6-[2,6-dimethyl-4-[(5-(trifluoromethyl)-1,2,4-oxadiazole-3-yl)phenoxyl]ethoxyl]-5-methylpyridine [Compound 51]	0.078	40.58		
Cc1nc(-c2cnc(OCCCOc3c(C)cc(-c4noc(C(F)(F)F)n4)cc3C)c(F)c2)no1 [Compound 121, 2-[3-[2,6-dimethyl-4-[5-(trifluoromethyl)-1,2,4-oxadiazole-3-yl]phenoxyl]propoxy]-3-fluoro-5-(5-methyl-1,2,4-oxadiazole-3-yl)-pyridine]			0.039 (≈ 0.079 µM)	36.17
Cc1cc(-c2noc(C(F)(F)F)n2)cc(C)c1OCCOC(C)(C)C [Compound 90, 3-[3,5-dimethyl-4-[(2-tert-butoxy)ethoxyl]phenyl]-5-(trifluoromethyl)-1,2,4-oxadiazole]	0.15	38.28		
Cc1cc(-c2noc(C(F)(F)F)n2)cc(C)c1OCCOc1ccc(-c2noc(C(F)(F)F)n2)cc1F [Compound 123]	0.043	35.88		
Cc1cc(-c2noc(C(F)(F)F)n2)cc(C)c1OCCSc1nnc(C(F)(F)F)[nH]1 [Compound 26, 3-[2-[2,6-dimethyl-4-[5-(trifluoromethyl)-1,2,4-oxadiazole-3-yl]phenoxyl]ethylthio]-5-trifluoromethyl-4H-1,2,4-triazole]			0.06 (≈ 0.132 µM)	38.35
Cc1cc(-c2noc(C(F)(F)F)n2)cc(C)c1OCCOc1ncc(C(=O)O)c(O)n1 [Compound 32, 2-[2-[2,6-dimethyl-4-[5-(trifluoromethyl)-1,2,4-oxadiazole-3-yl]phenoxyl]ethoxyl]-4-hydroxyl-pyrimidine-5-carboxylic acid]			0.023 (≈ 0.0522 µM)	40.28
Cc1cc(-c2noc(C(F)(F)F)n2)cc(C)c1OCCOc1ccc(-c2noc(C(F)(F)F)n2)cn1 [Compound 114, 2-[2-[2,6-dimethyl-4-[5-(trifluoromethyl)-1,2,4-oxadiazole-3-yl]phenoxyl]ethoxyl]-5-[5-(trifluoromethyl)-1,2,4-oxadiazole-3-yl]-pyridine]			0.038 (≈ 0.0737 µM)	36.32
Cc1cc(-c2noc(C(F)(F)F)n2)cc(C)c1OCCOc1ccc(Cl)cc1Cl [Compound 43, 3-[3,5-dimethyl-4-[(2,4-dichlorophenoxyl)ethoxyl]phenyl]-5-(trifluoromethyl)-1,2,4-oxadiazole]			0.044 (≈ 0.0984 µM)	35.66
3-[2-(2,6-dimethyl-4-[(5-(trifluoromethyl)-1,2,4-oxadiazole-3-yl)phenoxyl]ethoxyl]-2-formamide-6-fluoropyrazine [Compound 109]	0.13			48.21
Cc1cc(-c2noc(C(F)(F)F)n2)cc(C)c1OCCSc1nnc(C)n1C [Compound 27, 3-[2-[2,6-dimethyl-4-[5-(trifluoromethyl)-1,2,4-oxadiazole-3-yl]phenoxyl]ethylthio]-4,5-dimethyl-4H-1,2,4-triazole]			0.07 (≈ 0.169 µM)	39.25
Cc1cc(OCCOc2c(C)cc(-c3noc(C(F)(F)F)n3)cc2C)no1 [Compound 1, 3-[3,5-dimethyl-4-[2-(5-methylisoxazole-3-oxy)ethoxyl]phenyl]-5-(trifluoromethyl)-1,2,4-oxadiazole]			0.022 (≈ 0.0574 µM)	50.67
